Consider six compounds from patent publication US20240009180A1, “MEDICINE FOR ALLEVIATING NEUROPATHIC PAIN” (Asahi Kasei Pharma Corporation, priority 2020, published 2024).

Data set [1] can be described thus: Study for pharmacokinetics in blood after oral administration to rats. In kind it is in vivo. The following applies: male, Crl: CD (SD), rat, 30 mg/kg, oral 30 mg/kg once daily. How it is done: Rats (strain: Crl: CD (SD), male, 7 weeks old, with diet) were orally administered a methylcellulose suspension containing a P2X7 receptor antagonist compound (Compound 7 or Compound 10). Then blood was collected from rats 15 and 30 minutes, 1, 2, 4, 8 and 24 hours after the administration, and the concentration of the compound contained in the collected blood was measured. The dose of the compound per dose was 30 mg/kg, and the concentration of the compound in the suspension was 3 mg/mL. Administration was carried out once daily for 4 consecutive days.
The variations of a blood level of the compound with the passage of time were analyzed by a conventional method, and the pharmacokinetic parameters were estimated.

Data set [2] is described as follows: Study for assessing the central tissue distribution after oral administration to rats. The following applies: for concentration at 1 h: male, Crl: CD (SD), plasma; for concentration at 1 h / Brain concentration / Spinal cord concentration: rat, oral 30 mg/kg, 1 hour after administration, mean value; for Distribution to blood and central tissue (in words): oral administration. Type of data set: in vivo, rat. How it is done: Rats (strain: Crl: CD (SD), male, 7 weeks old, with diet) were orally administered a methylcellulose suspension containing a P2X7 receptor antagonist compound (Compound 7 or Compound 10). Then central tissue was collected from rats 1 hour after its administration, and the compound distribution to the collected central tissue was assessed. The dose of the compound per dose was 30 mg/kg, and the concentration of the compound in the suspension was 3 mg/mL.
The study was carried out with n=2 or n=3.

In a further data set the test system is CCI model rats. The experiment in a line: Rat chronic stenosis injury model (CCI or Bennett model), Randall-Selitto test. Type of data set: in vivo. As to conditions: 2, 10 or 50 mg/kg single oral dose 3 hours before measurement, 12 days after CCI surgery, vs solvent group. The protocol:
In order to confirm the effect of Compound 7 on neuropathic pain, the effect of Compound 7 on hyperalgesia caused by mechanical stimulation occurring in CCI model rats was investigated. Compound 7 was orally administered to rats as an investigational drug, and the following studies were carried out.
As an experimental animal, a 7-week-old Sprague Dawley male rat (220.4 to 328.0 g) was used. The surgery was performed according to the procedure described in Bennett et al., Pain, 1988, 33, 87-107. Under isoflurane anesthesia, the right sciatic nerve was exposed via a blunt incision in the biceps femoris. Proximal to the bifurcation of the sciatic nerve, the nerve was freed of adhering tissue and 4 loose ligatures of 4-0 silk were tied around the nerve. Spacing between ligatures was approximately 1 mm. The muscle was sutured in layers, and the skin closed with silk suture.
The experimental animals were composed of four groups: a solvent administration group and each administration group of either 2, 10 or 50 mg/kg of Compound 7 (Compound 7-administration group). Compound 7 was orally administered to the Compound 7-administration group in a single dose 3 hours before the measurement test performed 12 days after CCI surgery. […]
The baseline threshold value was measured before CCI surgery, and then the pain threshold value was measured 12 days after surgery.

For a further data set, the system named is SNL model rats. Briefly: Rat spinal nerve ligation model (SNL or Chung model), Dynamic Plantar Aesthesiometer test. In kind it is in vivo. The following applies: 50 mg/kg oral once a day for 7 days from the 15th day after SNL surgery, vs solvent group. The protocol:
In order to confirm the effect of Compound 7 on neuropathic pain, the effect of Compound 7 on allodynia caused by mechanical stimulation occurring in SNL model rats was investigated. Compound 7 was orally administered to rats as a test drug, and the following tests were carried out.
As an experimental animal, a 6-week-old Sprague Dawley male rat (180 to 210 g) was used. The surgery was performed according to the procedure described in Chung et al., Pain, 1992, 50, 355-363. Under isoflurane anesthesia, a longitudinal incision was made in the dorsal skin from the thoracic spine to the sacral spine level. After incision and isolation of the paravertebral muscles, the L5 and L6 transverse processes were removed to expose the L5 and L6 spinal nerves. These nerves were ligated with 5-0 silk suture. Sham operated animals were treated identically with the exception that the nerves were not ligated. The muscle was sutured in layers, and the skin was closed with silk suture.
The experimental animals consisted of 6 groups: a sham operation group, a solvent administration group, and each administration group of either 0.4, 2, 10, or 50 mg/kg of Compound 7 (Compound 7-administration group). […]
The pain threshold for mechanical stimulation in the above rats, was measured using a Dynamic Plantar Aesthesiometer (manufactured by Ugo Basile).

Data set [3] can be described thus: Central tissue distribution in humans: exposure to the cerebrospinal fluid after repeated oral administration. Type of data set: in vivo, human. The following applies: healthy subjects.
The test system of data set [4] is animal models of bone cancer. The following applies: cited from earlier work.
Data set [5] has as its system amphetamine-induced hypersensitivity. The following applies: 30 mg/kg; cited from earlier work.
The next data set concerns neuropathy model rats. As to conditions: 30 mg/kg; cited from earlier work.
For data set [6], the system named is hypersensitivity to mechanical stimulation. As to conditions: in vivo; cited from earlier work.
For the next data set, the system named is neuropathic pain in rats. The following applies: cited from earlier work.

Structures can show the parent of a compound that is named as a salt.

Consider `O=C(NCc1ccc(Cl)cc1Cl)[C@]1(F)CC[C@@](O)(CO)c2ncccc21` [Compound 10, (5S,8S)-N-(2,4-dichlorobenzyl)-5-fluoro-8-hydroxy-8-(hydroxymethyl)-5,6,7,8-tetrahydroquinoline-5-carboxamide], for which, in data set [1] (Day 1 of administration), the area under the curve AUC(0-t) was 48.8 µM·h, the highest level (Cmax) was 9.54 µM and the Tmax turned out to be 20 min. In data set [1] (Day 4 of administration), the exposure AUC(0-t) worked out at 45.6 µM·h, the Cmax came out at 8.27 µM and the Tmax turned out to be 15 min. Also, in data set [2], the concentration at 1 h stood at 5.08 µM; the “Distribution to blood and central tissue (in words)” value was “sufficient distribution to blood, brain and spinal cord”; the Brain concentration is 9.22 nmol/g tissue; the Spinal cord concentration is 11.4 nmol/g tissue.

Take `O=C(NCc1ccc(F)cc1Cl)[C@]1(F)CC[C@@](O)(CO)c2ncccc21` [Compound 7, (5S,8S)-N-(2-chloro-4-fluorobenzyl)-5-fluoro-8-hydroxy-8-(hydroxymethyl)-5,6,7,8-tetrahydroquinoline-5-carboxamide]: in data set [1] (Day 1 of administration), the exposure AUC(0-t) worked out at 80.1 µM·h, the peak concentration (Cmax) was found to be 18.5 µM and the Tmax was 20 min. Also, in data set [1] (Day 4 of administration), the AUC(0-t) was 77.4 µM·h, the maximum concentration (Cmax) stood at 14.7 µM and the Tmax is 35 min. Further, in [2], the concentration at 1 h came out at 19.3 µM; the “Distribution to blood and central tissue (in words)” value was “sufficient distribution to blood, brain and spinal cord”; the Brain concentration is listed as 23.6 nmol/g tissue; the Spinal cord concentration amounted to 27.7 nmol/g tissue. Also, in the data set on CCI model rats, the “Pain threshold value (paw pressure) lowered by CCI surgery” value was “significantly increased in all the administration groups”. Also, the “Pain threshold value for mechanical stimulation lowered by SNL surgery” value in the data set on SNL model rats is recorded as “significantly increased”. The “Exposure to the cerebrospinal fluid” value in [3] is listed as “Sufficient Exposure”.

Turning to `Clc1cccc(-c2nnnn2Cc2cccnc2)c1Cl` [Compound A-438079], in [4], the “Effect on bone cancer-related behavior” value is “could not alleviate bone cancer-related behavior”.

Take `O=C(NCC1(N2CCN(c3ccccc3)CC2)CCOCC1)c1cccnc1Sc1ccccc1` [JNJ-47965567]: the “Effect on amphetamine-induced hypersensitivity” value in [5] was “alleviated the amphetamine-induced hypersensitivity”. Moreover, in the data set with neuropathy model rats, the “Efficacy in neuropathy model rats” value was “not a large but a significant efficacy”.

With `Clc1cccc(-c2nnnn2Cc2cccnc2)c1Cl` [A438079 hydrochloride], the “Effect on development of hypersensitivity to mechanical stimulation” value in [6] is given as “suppressed the development of hypersensitivity to mechanical stimulation”.

As to `COc1ccc(CC(=O)NC(NC(=NC#N)Nc2cccc3ncccc23)C(C)(C)C)cc1OC` (stereo not shown) [Compound A-740003, N-(1-{[(cyanoimo) (5-quinolinylamino)methyl]amino}-2,2-dimethylpropyl)-2-(3,4-dimethoxyphenyl)acetamide], in the data set on neuropathic pain in rats, the “Effect on neuropathic pain” value was “reduced neuropathic pain in rats in a dose-dependent manner”.
